The text below walks through data of patent US20250304550A1, “BROMODOMAIN AND EXTRA-TERMINAL (BET) SUBFAMILY BROMODOMAIN 1 (BD1) SELECTIVE INHIBITORS AND METHODS USING SAME” (Baylor College of Medicine, priority 2022, published 2025).

In series [1] the target is BRDT-BD1 (Homo sapiens (Human), UniProt Q58F21). Briefly: AlphaScreen bromodomain proximity assay (biotinylated JQ1 competition). The class given is binding. As to conditions: for IC50: AlphaScreen; for BRDT-BD1 vs. BRDT-BD2 fold: BD1 selectivity, AlphaScreen IC50 ratio; for fold loss of selectivity BRDT-BD1 over BRDT-BD2: compared to compound 2.
The target of series [2] is BRDT-BD2 (Homo sapiens (Human), UniProt Q58F21). Described as above. It is filed as binding. As to conditions: in Table 4 '—' = not efficient.
Series [3] deals with BRD4-BD1 (Homo sapiens (Human), UniProt O60885). The description is as above. The class given is binding. As to conditions: for BRD4-BD1 vs. BRD4-BD2 fold: BD1 selectivity, AlphaScreen IC50 ratio.
For series [4], the target named is BRD4-BD2 (Homo sapiens (Human), UniProt O60885). Described as above. The class given is binding. As to conditions: in Table 4 '—' = not efficient.
In series [5] the test system is BRD4-dependent AML cell lines. Briefly: Cell viability testing (CellTiterGlo, 72 hours) in AML cell lines. It is filed as cell-based.
Series [6] deals with BD2. As to conditions: background statement; cited from earlier work.
The nature of series [7]: Metabolic stability assay in mouse liver microsomes. The class given is in vitro ADME.
Series [8] can be described thus: Metabolic stability assay in human liver microsomes. The class given is in vitro ADME.
Series [9] relates to NanoLuc-BET BD1. Briefly: NanoBRET target engagement intracellular BET bromodomain assay in HEK293 cells. It is filed as cell-based, human. As to conditions: transiently transfected HEK293 cells.
[10] abbreviates: 0.5 mg protein/mL, compound 2.0 μM, NADPH 1.0 mM.

Structures are written as SMILES.

On to `Cc1cc(=O)[nH]c2ccc(CC(=O)N3CCC(CCNC(=O)c4ccccc4)CC3)cc12` [Compound 17, N-(2-(1-(2-(4-methyl-2-oxo-1,2-dihydroquinolin-6-yl)acetyl)piperidin-4-yl)ethyl)benzamide], for which the results for the IC50 in series [1], in series [2] and in series [3] (AlphaScreen) were 148 nM, 10400 nM and 47.9 nM, respectively. In addition, in [1], the “BRDT-BD1 vs. BRDT-BD2 fold” value came to 70 fold.
As for `CNC(=O)[C@H](CC1CCN(C(=O)Cc2ccc3[nH]c(=O)cc(C)c3c2)CC1)NC(=O)c1ccc(C(F)(F)F)cn1` [Compound 7, (S)-N-(3-(1-(2-(4-methyl-2-oxo-1,2-dihydroquinolin-6-yl)acetyl)piperidin-4-yl)-1-(methylamino)-1-oxopropan-2-yl)-5-(trifluoromethyl)picolinamide], the figures for the IC50 in series [1] and in [3] (AlphaScreen) were 3.8 nM and 7.4 nM, respectively.
`Cc1ccc(-c2ccc(C(=O)NCCC3CCN(C(=O)Cc4ccc5[nH]c(=O)cc(C)c5c4)CC3)nc2)c(C)c1` [Compound 15, 5-(2,4-dimethylphenyl)-N-(2-(1-(2-(4-methyl-2-oxo-1,2-dihydroquinolin-6-yl)acetyl)piperidin-4-yl)ethyl)picolinamide]: the concentration for half-maximal inhibition (IC50) is 33.7 nM in [1], 67800 nM in series [2], 27.8 nM in series [3] (AlphaScreen) and 8690 nM in series [4]. Further, in series [1], the “BRDT-BD1 vs. BRDT-BD2 fold” value is 2012 fold. The “BRD4-BD1 vs. BRD4-BD2 fold” value in series [3] is listed as 312 fold.
For `CNC(=O)[C@@H](CC1CCN(C(=O)Cc2ccc3[nH]c(=O)cc(C)c3c2)CC1)NC(=O)c1ccc(-c2ccc(Cl)cc2)cn1` [Compound 8, (R)-5-(4-chlorophenyl)-N-(3-(1-(2-(4-methyl-2-oxo-1,2-dihydroquinolin-6-yl)acetyl)piperidin-4-yl)-1-(methylamino)-1-oxopropan-2-yl)picolinamide], the IC50 amounted to 5.1 nM in series [1], 33800 nM in series [2], 12.8 nM in series [3] (AlphaScreen) and 19900 nM in series [4]. Also, the “BRDT-BD1 vs. BRDT-BD2 fold” value in series [1] is given as 6,633 fold. Besides, the “BRD4-BD1 vs. BRD4-BD2 fold” value in [3] was 1,553 fold.
`CNC(=O)[C@H](CC1CCN(C(=O)Cc2ccc3[nH]c(=O)cc(C)c3c2)CC1)NC(=O)c1ccc(-c2ccccc2)cn1` [Compound 5, (S)-N-(3-(1-(2-(4-methyl-2-oxo-1,2-dihydroquinolin-6-yl)acetyl)piperidin-4-yl)-1-(methylamino)-1-oxopropan-2-yl)-5-phenylpicolinamide]: the “cellular potency in AML cell lines (in words)” value in series [5] is “minimal activity”.
On to `COc1cc(OC)c2c(=O)[nH]c(-c3cc(C)c(OCCO)c(C)c3)nc2c1` [RVX-208], for which, in [6], the BD2 potency is > 100 nM and the “selectivity over BD1 domains” value is on record as ~10 fold.
In the case of `Cc1cc(=O)[nH]c2ccc(CC(=O)N3CCC(CCNC(=O)c4ccccn4)CC3)cc12` [Compound 16, N-(2-(1-(2-(4-methyl-2-oxo-1,2-dihydroquinolin-6-yl)acetyl)piperidin-4-yl)ethyl)picolinamide], the IC50 worked out at 35.4 nM in [1], 6800 nM in [2], 13.8 nM in series [3] (AlphaScreen) and 75200 nM in [4]. Also, the “BRDT-BD1 vs. BRDT-BD2 fold” value in series [1] stood at 192 fold. Besides, the “BRD4-BD1 vs. BRD4-BD2 fold” value in series [3] was 5,449 fold.
Consider `Cc1sc2c(c1C)C(c1ccc(Cl)cc1)=N[C@@H](CC(=O)OC(C)(C)C)c1nnc(C)n1-2` [JQ1, tert-butyl (S)-2-(4-(4-chlorophenyl)-2,3,9-trimethyl-6H-thieno[3,2-f][1,2,4]triazolo[4,3-a][1,4]diazepin-6-yl)acetate, reference compound], for which the “metabolic stability in mouse liver microsomes (in words)” value in series [7] (mouse, microsomes) is given as “labile”. Also, the “half-life in human liver microsomes (in words)” value in [8] (human, microsomes) was “quite low”. The “inhibition of tracer binding, BD1 vs BD2 (in words)” value in series [9] was “binds both BD1 and BD2 equally”.
Take `Cc1cc(=O)[nH]c2ccc(CC(=O)N3CCN(CCNC(=O)c4ccccn4)CC3)cc12` [Compound 21, N-(2-(4-(2-(4-methyl-2-oxo-1,2-dihydroquinolin-6-yl)acetyl)piperazin-1-yl)ethyl)picolinamide]: the IC50 in series [1] stood at 5200 nM; in series [2] it was 71800 nM; in series [3] (AlphaScreen) it was 1300 nM. In addition, the “BRDT-BD1 vs. BRDT-BD2 fold” value in series [1] came out at 13.8 fold.
On to `Cc1ccc(-c2ccc(C(=O)NC(C)CC3CCN(C(=O)Cc4ccc5[nH]c(=O)cc(C)c5c4)CC3)nc2)c(C)c1` (centres unmarked) [Compound 14, 5-(2,4-dimethylphenyl)-N-(1-(1-(2-(4-methyl-2-oxo-1,2-dihydroquinolin-6-yl)acetyl)piperidin-4-yl)propan-2-yl)picolinamide], for which the IC50 in series [1] worked out at 31 nM; in series [2], 23400 nM; in [3] (AlphaScreen) it was 52.4 nM; in series [4], 20000 nM. For the same compound, in [1], the “BRDT-BD1 vs. BRDT-BD2 fold” value worked out at 756 fold. Further, in series [1], the “fold loss of selectivity BRDT-BD1 over BRDT-BD2” value worked out at 6.5 fold. The “BRD4-BD1 vs. BRD4-BD2 fold” value in series [3] is 381 fold.
For the compound `CNC(=O)C(CC1CCN(C(=O)Cc2ccc3[nH]c(=O)cc(C)c3c2)CC1)NC(=O)c1ccccn1` (centres unmarked) [Compound 11, N-(3-(1-(2-(4-methyl-2-oxo-1,2-dihydroquinolin-6-yl)acetyl)piperidin-4-yl)-1-(methylamino)-1-oxopropan-2-yl)picolinamide], the IC50 in series [1] was 20.2 nM; in series [2], 19400 nM; in series [3] (AlphaScreen), 15.7 nM; in series [4], 32600 nM. In series [1], the “BRDT-BD1 vs. BRDT-BD2 fold” value is reported as 960 fold. Further, the “fold loss of selectivity BRDT-BD1 over BRDT-BD2” value in [1] is reported as 5 fold. For the same compound, in series [3], the “BRD4-BD1 vs. BRD4-BD2 fold” value was 2,078 fold.
For `Cc1cc(=O)[nH]c2ccc(CC(=O)N3CCC(CCNC(=O)c4cc5ccccc5cn4)CC3)cc12` [Compound 19, N-(2-(1-(2-(4-methyl-2-oxo-1,2-dihydroquinolin-6-yl)acetyl)piperidin-4-yl)ethyl)isoquinoline-3-carboxamide], the IC50 in series [1] was 116 nM; in series [3] (AlphaScreen), 119 nM.
For `CNC(=O)C(CC1CCN(C(=O)Cc2ccc3[nH]c(=O)cc(C)c3c2)CC1)NC(=O)c1ccc(-c2ccc(C)cc2C)cn1` (centres unmarked) [Compound 1, 5-(2,4-dimethylphenyl)-N-(3-(1-(2-(4-methyl-2-oxo-1,2-dihydroquinolin-6-yl)acetyl)piperidin-4-yl)-1-(methylamino)-1-oxopropan-2-yl)picolinamide], in series [1], the 50% inhibitory concentration (IC50) was determined as 5.7 nM and the “BRDT-BD1 vs. BRDT-BD2 fold” value amounted to 2246 fold.
For `Cc1cc(=O)[nH]c2ccc(CC(=O)N3CCC(CCNC(=O)c4nccc5ccccc45)CC3)cc12` [Compound 20, N-(2-(1-(2-(4-methyl-2-oxo-1,2-dihydroquinolin-6-yl)acetyl)piperidin-4-yl)ethyl)isoquinoline-1-carboxamide], the IC50 was 638 nM in series [1] and 341 nM in series [3] (AlphaScreen).
Consider `CNC(=O)[C@H](CC1CCN(C(=O)Cc2ccc3[nH]c(=O)cc(C)c3c2)CC1)NC(=O)c1ccc(-c2ccc(C)cc2C)cn1` [Compound 3, (S)-5-(2,4-dimethylphenyl)-N-(3-(1-(2-(4-methyl-2-oxo-1,2-dihydroquinolin-6-yl)acetyl)piperidin-4-yl)-1-(methylamino)-1-oxopropan-2-yl)picolinamide], for which, in series [1], the half-maximal inhibitory concentration (IC50) turned out to be 96.6 nM and the “BRDT-BD1 vs. BRDT-BD2 fold” value turned out to be 65 fold. Moreover, the “fold greater affinity for BRD4-BD1 than BRDT-BD1” value in [3] (AlphaScreen) was 4 fold. Also, the “cellular potency in AML cell lines (in words)” value in series [5] is recorded as “minimal effect”.
Turning to `CNC(=O)C(CC1CCN(C(=O)Cc2ccc3[nH]c(=O)cc(C)c3c2)CC1)NC(=O)c1ccc(C(F)(F)F)cn1` (centres unmarked) [Compound 12, N-(3-(1-(2-(4-methyl-2-oxo-1,2-dihydroquinolin-6-yl)acetyl)piperidin-4-yl)-1-(methylamino)-1-oxopropan-2-yl)-5-(trifluoromethyl)picolinamide], the IC50 turned out to be 14 nM in series [1], 7190 nM in series [2], 6.9 nM in series [3] (AlphaScreen) and 8800 nM in series [4]. The “BRDT-BD1 vs. BRDT-BD2 fold” value in series [1] is listed as 513 fold. For the same compound, the “BRD4-BD1 vs. BRD4-BD2 fold” value in series [3] is listed as 1,275 fold.
As to `Cc1nnc2n1-c1ccc(Cl)cc1C(c1ccccc1)=NC2` [Alprazolam, reference compound], in series [7] (setting [10]), the “MLM t1/2” value was determined as 5.03 h. For the same compound, the “HLM t1/2” value in series [8] (setting [10]) is 14.4 h.
On to `Cc1cc(=O)[nH]c2ccc(CC(=O)N3CCC(CCNC(=O)c4ccc5ccccc5n4)CC3)cc12` [Compound 18, N-(2-(1-(2-(4-methyl-2-oxo-1,2-dihydroquinolin-6-yl)acetyl)piperidin-4-yl)ethyl)quinoline-2-carboxamide], for which the values for the concentration for half-maximal inhibition (IC50) in series [1] and in series [3] (AlphaScreen) were 81.3 nM and 122 nM, respectively.
As to `CNC(=O)[C@@H](CC1CCN(C(=O)Cc2ccc3[nH]c(=O)cc(C)c3c2)CC1)NC(=O)c1ccc(-c2ccc(Cl)c(F)c2)cn1` [Compound 9, (R)-5-(4-chloro-3-fluorophenyl)-N-(3-(1-(2-(4-methyl-2-oxo-1,2-dihydroquinolin-6-yl)acetyl)piperidin-4-yl)-1-(methylamino)-1-oxopropan-2-yl)picolinamide], the IC50 turned out to be 4.7 nM in series [1], 22600 nM in series [2], 9.8 nM in series [3] (AlphaScreen) and 14000 nM in [4]. For the same compound, the “BRDT-BD1 vs. BRDT-BD2 fold” value in series [1] was 4,799 fold. The “BRD4-BD1 vs. BRD4-BD2 fold” value in [3] is listed as 1,423 fold.
